Like-named read-outs stand apart in the source and are kept apart here.
What was measured:
Experiment in all cases: biochemical
Format in all cases: biochemical
382 unique human kinases [1] = target: T1, 382 unique human kinases (Homo sapiens, UniProt O43781); conditions: DYRK3, 10 uM; for remaining activity at 10 µM: read-out: % Enzyme Activity (relative to DMSO controls)
T1 construct: purchased Reaction Biology (HotSpot contract assay)
T1 sequence (O43781 1-588): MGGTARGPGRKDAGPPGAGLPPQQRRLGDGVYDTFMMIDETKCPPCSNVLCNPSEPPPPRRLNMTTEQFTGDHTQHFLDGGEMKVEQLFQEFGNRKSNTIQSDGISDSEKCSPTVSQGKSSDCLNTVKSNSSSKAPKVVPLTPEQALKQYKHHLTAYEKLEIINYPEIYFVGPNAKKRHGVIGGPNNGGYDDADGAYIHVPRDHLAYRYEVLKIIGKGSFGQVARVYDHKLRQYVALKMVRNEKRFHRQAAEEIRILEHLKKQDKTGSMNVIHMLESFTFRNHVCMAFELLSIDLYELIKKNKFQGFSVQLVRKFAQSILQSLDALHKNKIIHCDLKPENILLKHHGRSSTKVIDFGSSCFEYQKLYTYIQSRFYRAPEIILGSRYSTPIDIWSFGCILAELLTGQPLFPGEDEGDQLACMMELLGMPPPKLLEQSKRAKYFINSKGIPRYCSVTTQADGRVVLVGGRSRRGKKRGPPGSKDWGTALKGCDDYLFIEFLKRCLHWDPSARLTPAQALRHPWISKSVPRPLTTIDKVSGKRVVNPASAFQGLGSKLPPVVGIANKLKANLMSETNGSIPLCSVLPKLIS

382 unique human kinases [2] = target: T2, 382 unique human kinases (Homo sapiens, UniProt P00533); conditions: EGFR, 10 uM; for remaining activity at 10 µM: read-out: % Enzyme Activity (relative to DMSO controls)
T2 construct: purchased Reaction Biology (HotSpot contract assay)

382 unique human kinases [3] = target: T3, 382 unique human kinases (Homo sapiens, UniProt P22455, V550M); conditions: FGFR4 (V550M), 10 uM; for remaining activity at 10 µM: read-out: % Enzyme Activity (relative to DMSO controls)
T3 construct: purchased Reaction Biology (HotSpot contract assay)

382 unique human kinases [4] = target: T4, 382 unique human kinases (Homo sapiens, UniProt P07949, E762Q); conditions: compound 10 uM; for remaining activity at 10 µM: read-out: % Enzyme Activity (relative to DMSO controls)
T4 construct: purchased Reaction Biology (HotSpot contract assay)

382 unique human kinases [5] = target: T5, 382 unique human kinases (Homo sapiens, UniProt P50613); conditions: kinase CDK7/cyclin H, compound 10 uM; for remaining activity at 10 µM: read-out: % Enzyme Activity (relative to DMSO controls)
T5 construct: purchased Reaction Biology (HotSpot contract assay)

382 unique human kinases [6] = target: T6, 382 unique human kinases (Homo sapiens, UniProt Q9Y2K2); conditions: SIK3, 10 uM; for remaining activity at 10 µM: read-out: % Enzyme Activity (relative to DMSO controls)
T6 construct: purchased Reaction Biology (HotSpot contract assay)

382 unique human kinases [7] = target: T7, 382 unique human kinases (Homo sapiens, UniProt P49760); conditions: CLK2, 10 uM; for remaining activity at 10 µM: read-out: % Enzyme Activity (relative to DMSO controls)
T7 construct: purchased Reaction Biology (HotSpot contract assay)

382 unique human kinases [8] = target: T8, 382 unique human kinases (Homo sapiens, UniProt Q5TCX8); conditions: MLK4, 10 uM; for remaining activity at 10 µM: read-out: % Enzyme Activity (relative to DMSO controls)
T8 construct: purchased Reaction Biology (HotSpot contract assay)

382 unique human kinases [9] = target: T9, 382 unique human kinases (Homo sapiens, UniProt Q32MK0); conditions: MYLK3, 10 uM; for remaining activity at 10 µM: read-out: % Enzyme Activity (relative to DMSO controls)
T9 construct: purchased Reaction Biology (HotSpot contract assay)
T9 sequence (Q32MK0 1-819): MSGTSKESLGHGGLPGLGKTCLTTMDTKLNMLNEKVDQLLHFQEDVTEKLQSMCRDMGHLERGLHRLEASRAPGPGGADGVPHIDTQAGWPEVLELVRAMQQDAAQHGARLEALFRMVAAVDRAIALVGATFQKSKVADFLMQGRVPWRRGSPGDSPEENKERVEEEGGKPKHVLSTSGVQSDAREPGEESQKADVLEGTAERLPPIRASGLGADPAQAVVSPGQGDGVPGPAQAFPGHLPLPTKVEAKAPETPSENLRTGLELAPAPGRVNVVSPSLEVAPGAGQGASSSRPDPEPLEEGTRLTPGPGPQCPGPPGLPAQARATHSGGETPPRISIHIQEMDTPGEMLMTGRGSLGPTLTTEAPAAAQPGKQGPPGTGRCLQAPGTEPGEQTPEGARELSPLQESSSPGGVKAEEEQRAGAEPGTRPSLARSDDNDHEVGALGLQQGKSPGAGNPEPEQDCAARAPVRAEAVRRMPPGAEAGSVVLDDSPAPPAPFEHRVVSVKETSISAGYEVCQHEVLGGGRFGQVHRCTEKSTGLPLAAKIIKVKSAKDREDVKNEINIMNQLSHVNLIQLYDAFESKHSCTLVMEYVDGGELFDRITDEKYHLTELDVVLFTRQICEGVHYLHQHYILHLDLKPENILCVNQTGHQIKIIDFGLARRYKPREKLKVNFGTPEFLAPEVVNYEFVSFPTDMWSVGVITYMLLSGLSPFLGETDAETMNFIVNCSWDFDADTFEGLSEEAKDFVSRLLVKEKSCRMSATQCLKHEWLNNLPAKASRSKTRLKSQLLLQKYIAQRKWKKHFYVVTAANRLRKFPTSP

382 unique human kinases [10] = target: T10, 382 unique human kinases (Homo sapiens, UniProt P07947); conditions: YES/YES1, [ATP] 50 µM
T10 construct: purchased Reaction Biology (HotSpot contract assay)

382 unique human kinases [11] = target: T11, 382 unique human kinases (Homo sapiens, UniProt Q9UM73, L1152R); conditions: ALK (L1152R), [ATP] 30 µM, compound 10 uM; for remaining activity at 10 µM: read-out: % Enzyme Activity (relative to DMSO controls)
T11 construct: purchased Reaction Biology (HotSpot contract assay)

382 unique human kinases [12] = target: T12, 382 unique human kinases (Homo sapiens, UniProt P15056, V600E); conditions: BRAF (V599E), 10 uM; for remaining activity at 10 µM: read-out: % Enzyme Activity (relative to DMSO controls)
T12 construct: purchased Reaction Biology (HotSpot contract assay)

382 unique human kinases [13] = target: T13, 382 unique human kinases (Homo sapiens, UniProt Q15349); conditions: RSK3, 10 uM; for remaining activity at 10 µM: read-out: % Enzyme Activity (relative to DMSO controls)
T13 construct: purchased Reaction Biology (HotSpot contract assay)

382 unique human kinases [14] = target: T14, 382 unique human kinases (Homo sapiens, UniProt P53350); conditions: PLK1, [ATP] 30 µM
T14 construct: purchased Reaction Biology (HotSpot contract assay)

[15] = compound 1 uM, read-out: % Enzyme Activity (relative to DMSO controls)
[16] = compound 10 uM, read-out: % Enzyme Activity (relative to DMSO controls)

T5 sequence (P50613 whole entry): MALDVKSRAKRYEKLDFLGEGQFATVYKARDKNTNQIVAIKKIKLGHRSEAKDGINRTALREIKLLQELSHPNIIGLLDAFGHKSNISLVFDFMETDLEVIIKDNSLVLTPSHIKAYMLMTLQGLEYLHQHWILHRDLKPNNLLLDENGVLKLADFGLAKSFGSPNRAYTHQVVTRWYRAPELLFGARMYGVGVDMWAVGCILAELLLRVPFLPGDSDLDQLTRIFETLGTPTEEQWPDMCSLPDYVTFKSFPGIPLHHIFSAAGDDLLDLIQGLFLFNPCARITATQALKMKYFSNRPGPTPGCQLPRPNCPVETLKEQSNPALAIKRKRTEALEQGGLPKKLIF
T10 sequence (P07947 whole entry): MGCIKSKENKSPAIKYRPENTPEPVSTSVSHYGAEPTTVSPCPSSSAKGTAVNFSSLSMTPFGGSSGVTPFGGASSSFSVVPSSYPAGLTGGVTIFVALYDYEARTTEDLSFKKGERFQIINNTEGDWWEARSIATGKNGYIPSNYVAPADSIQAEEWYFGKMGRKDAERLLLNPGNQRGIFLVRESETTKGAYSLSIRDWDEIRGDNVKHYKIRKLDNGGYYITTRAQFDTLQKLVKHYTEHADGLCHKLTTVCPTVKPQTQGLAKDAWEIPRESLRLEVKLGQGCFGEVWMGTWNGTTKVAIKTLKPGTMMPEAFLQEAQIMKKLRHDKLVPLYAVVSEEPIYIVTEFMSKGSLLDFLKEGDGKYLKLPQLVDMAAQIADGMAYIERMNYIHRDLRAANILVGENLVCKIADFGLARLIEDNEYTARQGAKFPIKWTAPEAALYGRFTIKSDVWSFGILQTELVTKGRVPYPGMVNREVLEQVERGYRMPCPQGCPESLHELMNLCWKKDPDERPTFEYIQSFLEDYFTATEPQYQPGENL
T4 sequence (P07949 29-1114 E762Q): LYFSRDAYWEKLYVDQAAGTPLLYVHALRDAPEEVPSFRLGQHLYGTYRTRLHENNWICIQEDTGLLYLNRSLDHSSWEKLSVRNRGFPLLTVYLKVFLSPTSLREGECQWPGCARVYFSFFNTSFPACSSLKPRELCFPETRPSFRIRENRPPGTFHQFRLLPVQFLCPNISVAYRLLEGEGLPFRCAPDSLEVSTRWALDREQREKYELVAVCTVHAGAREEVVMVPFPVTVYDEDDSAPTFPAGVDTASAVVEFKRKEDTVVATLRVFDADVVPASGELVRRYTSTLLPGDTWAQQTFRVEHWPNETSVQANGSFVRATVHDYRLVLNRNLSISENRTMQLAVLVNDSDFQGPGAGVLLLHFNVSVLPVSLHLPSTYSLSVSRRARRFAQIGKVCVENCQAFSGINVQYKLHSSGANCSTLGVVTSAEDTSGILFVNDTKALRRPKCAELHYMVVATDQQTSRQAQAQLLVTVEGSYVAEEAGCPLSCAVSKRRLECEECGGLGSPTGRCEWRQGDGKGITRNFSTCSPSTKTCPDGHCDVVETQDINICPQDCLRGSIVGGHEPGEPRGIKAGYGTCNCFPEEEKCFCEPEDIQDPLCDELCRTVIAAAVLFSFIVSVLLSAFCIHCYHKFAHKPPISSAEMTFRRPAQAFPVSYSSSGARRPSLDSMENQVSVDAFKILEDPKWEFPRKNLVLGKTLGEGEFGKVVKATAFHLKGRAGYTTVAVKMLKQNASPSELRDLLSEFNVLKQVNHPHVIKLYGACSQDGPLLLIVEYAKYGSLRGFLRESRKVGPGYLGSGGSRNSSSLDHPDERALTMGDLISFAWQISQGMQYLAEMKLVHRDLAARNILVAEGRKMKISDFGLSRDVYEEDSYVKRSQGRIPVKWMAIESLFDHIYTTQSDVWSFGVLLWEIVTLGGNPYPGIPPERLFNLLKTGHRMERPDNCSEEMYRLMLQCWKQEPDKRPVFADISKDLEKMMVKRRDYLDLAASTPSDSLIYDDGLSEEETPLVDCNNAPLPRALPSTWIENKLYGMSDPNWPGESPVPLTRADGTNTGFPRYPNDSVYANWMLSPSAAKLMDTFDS
T11 sequence (Q9UM73 19-1620 L1152R): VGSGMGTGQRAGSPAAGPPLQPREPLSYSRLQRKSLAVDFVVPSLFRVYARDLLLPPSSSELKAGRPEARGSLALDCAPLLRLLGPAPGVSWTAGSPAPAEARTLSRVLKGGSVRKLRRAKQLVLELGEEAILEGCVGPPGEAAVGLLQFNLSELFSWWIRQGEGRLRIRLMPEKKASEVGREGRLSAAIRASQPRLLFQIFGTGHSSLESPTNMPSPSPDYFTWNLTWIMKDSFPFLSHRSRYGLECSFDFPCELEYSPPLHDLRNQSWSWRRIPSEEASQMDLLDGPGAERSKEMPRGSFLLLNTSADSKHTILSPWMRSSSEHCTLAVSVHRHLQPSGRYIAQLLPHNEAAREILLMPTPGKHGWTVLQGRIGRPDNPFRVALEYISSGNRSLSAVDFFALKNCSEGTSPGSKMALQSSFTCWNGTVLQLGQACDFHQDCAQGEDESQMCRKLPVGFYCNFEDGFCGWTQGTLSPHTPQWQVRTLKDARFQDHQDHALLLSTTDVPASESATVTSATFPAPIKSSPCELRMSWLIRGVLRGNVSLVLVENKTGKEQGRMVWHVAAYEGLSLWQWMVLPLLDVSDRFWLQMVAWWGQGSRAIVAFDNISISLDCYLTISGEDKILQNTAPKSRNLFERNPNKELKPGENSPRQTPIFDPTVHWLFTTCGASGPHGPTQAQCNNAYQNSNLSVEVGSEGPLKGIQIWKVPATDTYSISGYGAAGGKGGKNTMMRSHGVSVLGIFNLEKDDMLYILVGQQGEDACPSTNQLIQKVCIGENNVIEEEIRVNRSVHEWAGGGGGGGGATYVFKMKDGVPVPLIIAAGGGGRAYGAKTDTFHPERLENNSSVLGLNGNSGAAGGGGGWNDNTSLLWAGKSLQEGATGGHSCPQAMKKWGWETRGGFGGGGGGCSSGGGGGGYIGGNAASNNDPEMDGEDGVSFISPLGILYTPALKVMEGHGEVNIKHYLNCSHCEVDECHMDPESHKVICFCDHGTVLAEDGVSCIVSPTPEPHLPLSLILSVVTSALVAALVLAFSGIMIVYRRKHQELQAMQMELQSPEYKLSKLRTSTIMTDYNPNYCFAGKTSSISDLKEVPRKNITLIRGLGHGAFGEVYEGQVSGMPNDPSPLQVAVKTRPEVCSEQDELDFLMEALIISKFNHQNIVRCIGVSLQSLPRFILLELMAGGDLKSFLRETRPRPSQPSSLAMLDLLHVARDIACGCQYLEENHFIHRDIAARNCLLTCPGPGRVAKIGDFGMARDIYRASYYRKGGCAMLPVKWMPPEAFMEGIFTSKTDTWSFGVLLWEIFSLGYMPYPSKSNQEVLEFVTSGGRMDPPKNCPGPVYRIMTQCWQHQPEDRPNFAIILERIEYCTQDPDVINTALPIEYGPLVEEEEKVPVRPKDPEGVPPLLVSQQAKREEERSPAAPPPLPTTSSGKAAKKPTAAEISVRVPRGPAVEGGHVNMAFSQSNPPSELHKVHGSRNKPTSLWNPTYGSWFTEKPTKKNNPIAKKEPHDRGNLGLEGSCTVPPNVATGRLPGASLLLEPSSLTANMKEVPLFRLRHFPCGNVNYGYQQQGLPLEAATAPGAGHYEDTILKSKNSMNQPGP
T3 sequence (P22455 22-802 V550M): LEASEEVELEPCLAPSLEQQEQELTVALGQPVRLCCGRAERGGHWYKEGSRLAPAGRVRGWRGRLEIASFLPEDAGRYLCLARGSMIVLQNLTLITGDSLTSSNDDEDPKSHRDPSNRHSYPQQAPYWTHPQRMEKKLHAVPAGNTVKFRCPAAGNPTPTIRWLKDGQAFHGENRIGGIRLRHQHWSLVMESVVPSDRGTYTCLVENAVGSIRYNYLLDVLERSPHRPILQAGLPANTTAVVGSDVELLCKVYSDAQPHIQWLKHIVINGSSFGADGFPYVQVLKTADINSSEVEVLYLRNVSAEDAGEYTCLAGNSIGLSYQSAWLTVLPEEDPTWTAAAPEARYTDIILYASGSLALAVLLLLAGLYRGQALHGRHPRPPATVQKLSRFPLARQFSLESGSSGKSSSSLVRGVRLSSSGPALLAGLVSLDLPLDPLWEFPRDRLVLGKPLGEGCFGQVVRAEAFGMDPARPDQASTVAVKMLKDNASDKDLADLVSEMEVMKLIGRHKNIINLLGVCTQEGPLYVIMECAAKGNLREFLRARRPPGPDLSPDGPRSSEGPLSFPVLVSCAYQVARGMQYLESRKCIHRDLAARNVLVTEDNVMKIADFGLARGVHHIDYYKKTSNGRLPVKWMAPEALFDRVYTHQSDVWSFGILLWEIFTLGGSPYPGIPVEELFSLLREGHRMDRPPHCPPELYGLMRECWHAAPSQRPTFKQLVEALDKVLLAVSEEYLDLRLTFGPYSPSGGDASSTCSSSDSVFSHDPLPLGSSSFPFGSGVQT
T13 sequence (Q15349 whole entry): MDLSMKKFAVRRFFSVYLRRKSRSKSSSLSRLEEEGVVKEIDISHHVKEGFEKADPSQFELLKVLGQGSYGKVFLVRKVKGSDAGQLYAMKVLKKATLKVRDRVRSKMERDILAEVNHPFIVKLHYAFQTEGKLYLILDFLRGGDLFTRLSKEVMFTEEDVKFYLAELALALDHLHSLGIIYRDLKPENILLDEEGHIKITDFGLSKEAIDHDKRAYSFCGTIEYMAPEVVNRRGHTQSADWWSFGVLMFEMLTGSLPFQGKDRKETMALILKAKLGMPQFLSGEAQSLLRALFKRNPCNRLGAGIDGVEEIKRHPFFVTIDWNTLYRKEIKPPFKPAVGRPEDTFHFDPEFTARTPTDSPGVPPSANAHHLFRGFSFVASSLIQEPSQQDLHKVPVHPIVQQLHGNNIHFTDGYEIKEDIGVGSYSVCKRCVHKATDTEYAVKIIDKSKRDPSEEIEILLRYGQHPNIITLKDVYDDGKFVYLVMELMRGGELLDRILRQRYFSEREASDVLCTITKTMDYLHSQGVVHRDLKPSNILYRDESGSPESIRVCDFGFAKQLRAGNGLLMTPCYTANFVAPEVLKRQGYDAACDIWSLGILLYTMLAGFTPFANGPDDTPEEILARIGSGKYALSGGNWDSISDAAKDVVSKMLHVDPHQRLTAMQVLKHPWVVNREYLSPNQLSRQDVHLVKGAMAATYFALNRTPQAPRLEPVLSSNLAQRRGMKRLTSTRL

In the case of `CC(C)c1cc(-c2n[nH]c(=O)n2-c2ccc3c(ccn3C)c2)c(O)cc1O` [Ganetespib (STA9090)], the remaining activity at 10 µM (382 unique human kinases [1]) was 67.1%, the remaining activity at 10 µM (382 unique human kinases [2]) was 76% and the remaining activity at 10 µM (382 unique human kinases [3]) was 85.2%. For the same compound, the remaining activity at 10 µM (382 unique human kinases [4]; […]) was 94.2%, the remaining activity at 10 µM (382 unique human kinases [4]; kinase RET (E762Q)) was 93.8% and the remaining activity at 10 µM (382 unique human kinases [5]) was 95.8%. The remaining activity at 10 µM (382 unique human kinases [6]) was 78.3% and the remaining activity at 10 µM (382 unique human kinases [7]) was 67.1%.

With `CC(C)c1cc(-c2n[nH]c(=O)n2-c2ccc3c(ccn3C)c2)c(O)cc1O` [Ganetespib] the remaining activity at 10 µM (382 unique human kinases [8]) was 141%, the remaining activity at 10 µM (382 unique human kinases [9]) was 100% and the remaining activity at 1 µM (382 unique human kinases [10]; [15]) was 45.5%. It also gave a remaining activity at 10 µM (382 unique human kinases [10]; [16]) of 12.8%, a remaining activity at 10 µM (382 unique human kinases [11]) of 14.2% and a remaining activity at 10 µM (382 unique human kinases [12]) of 110%. It also gave a remaining activity at 10 µM (382 unique human kinases [13]) of 119%, a remaining activity at 1 µM (382 unique human kinases [14]; [15]) of 88.2% and a remaining activity at 10 µM (382 unique human kinases [14]; [16]) of 11.5%.

With `CCNC(=O)c1noc(-c2cc(C(C)C)c(O)cc2O)c1-c1ccc(CN2CCOCC2)cc1` [Luminespib (AUY-922)] the “% Enzyme Activity (relative to DMSO controls)” value (382 unique human kinases [1]) was 94.13%, the remaining activity at 10 µM (382 unique human kinases [1]) was 94.8% and the “% Enzyme Activity (relative to DMSO controls)” value (382 unique human kinases [2]) was 93.47%. For the same compound, the remaining activity at 10 µM (382 unique human kinases [2]) was 95.1%, the “% Enzyme Activity (relative to DMSO controls)” value (382 unique human kinases [3]) was 64.75% and the remaining activity at 10 µM (382 unique human kinases [3]) was 72.2%. For the same compound, the “% Enzyme Activity (relative to DMSO controls)” value (382 unique human kinases [4]; kinase RET (E762Q)) was 89.64%, the remaining activity at 10 µM (382 unique human kinases [4]; kinase RET (E762Q)) was 96.6% and the “% Enzyme Activity (relative to DMSO controls)” value (382 unique human kinases [5]) was 84.47%. For the same compound, the remaining activity at 10 µM (382 unique human kinases [5]) was 85.3%, the “% Enzyme Activity (relative to DMSO controls)” value (382 unique human kinases [6]) was 99.21% and the remaining activity at 10 µM (382 unique human kinases [6]) was 99.6%. The “% Enzyme Activity (relative to DMSO controls)” value (382 unique human kinases [7]) was 80.06% and the remaining activity at 10 µM (382 unique human kinases [7]) was 80.2%.

With `CCNC(=O)c1noc(-c2cc(C(C)C)c(O)cc2O)c1-c1ccc(CN2CCOCC2)cc1` [Luminespib] the “% Enzyme Activity (relative to DMSO controls)” value (382 unique human kinases [8]) was 99.12%, the remaining activity at 10 µM (382 unique human kinases [8]) was 101% and the “% Enzyme Activity (relative to DMSO controls)” value (382 unique human kinases [9]) was 99.89%. The remaining activity at 10 µM (382 unique human kinases [9]) was 100%, the “% Enzyme Activity (relative to DMSO controls)” value (382 unique human kinases [10]; compound 10 uM) was 49.59% and the remaining activity at 10 µM (382 unique human kinases [10]; [16]) was 52.3%. The “% Enzyme Activity (relative to DMSO controls)” value (382 unique human kinases [11]) was 90.08%, the remaining activity at 10 µM (382 unique human kinases [11]) was 90.7% and the “% Enzyme Activity (relative to DMSO controls)” value (382 unique human kinases [12]) was 98.13%. For the same compound, the remaining activity at 10 µM (382 unique human kinases [12]) was 98.8%, the “% Enzyme Activity (relative to DMSO controls)” value (382 unique human kinases [13]) was 94.51% and the remaining activity at 10 µM (382 unique human kinases [13]) was 95.2%. For the same compound, the “% Enzyme Activity (relative to DMSO controls)” value (382 unique human kinases [14]; compound 10 uM) was 100.90% and the remaining activity at 10 µM (382 unique human kinases [14]; [16]) was 103%.

Source: publication PMC8550792, “Evolution of kinase polypharmacology across HSP90 drug discovery” (Cell Chemical Biology, 2021)
